Test results published in the NIST ThermoML archive (doi:10.1016/j.fluid.2015.06.041).
± gives the expanded uncertainty stated by the source.

What was measured:
[1] = 101.33 kPa, Liquid; for viscosity: Capillary tube (Ostwald / Ubbelohde) method; for mass density: Vibrating tube method
[2] = xn = mol fraction of the nth substance listed; conditions: 101 kPa, Liquid, x1 = 1; for viscosity: Capillary tube (Ostwald / Ubbelohde) method; for speed of sound: Frequency=2 MHz, Linear variable-path acoustic interferometer; for mass density: Vibrating tube method

Row | Structure (SMILES) | viscosity ([1]; 298.15 K) [mPa·s] | mass density ([1]; 298.15 K) [kg/m3] | viscosity ([1]; 308.15 K) [mPa·s] | mass density ([1]; 308.15 K) [kg/m3] | viscosity ([1]; 318.15 K) [mPa·s] | mass density ([1]; 318.15 K) [kg/m3] | viscosity ([2]; 298.15 K) [mPa·s] | speed of sound ([2]; 298.15 K) [m/s] | mass density ([2]; 298.15 K) [kg/m3] | viscosity ([2]; 308.15 K) [mPa·s] | mass density ([2]; 308.15 K) [kg/m3] | viscosity ([2]; 318.15 K) [mPa·s] | mass density ([2]; 318.15 K) [kg/m3] | viscosity ([2]; 298.18 K) [mPa·s]
1 | C1COCCO1 [1,4-dioxane] | 1.178 ± 0.036 | 1027.79 ± 0.11 | 1.009 ± 0.031 | 1016.78 ± 0.11 | 0.8896 ± 0.027 | 1005.24 ± 0.11 | – | – | – | – | – | – | – | –
2 | C1COCCO1 [1,4-dioxane] + ClCCCl | – | – | – | – | – | – | 1.178 ± 0.036 | 1343.4 ± 1.4 | 1027.79 ± 0.11 | 1.009 ± 0.031 | 1016.78 ± 0.11 | 0.8896 ± 0.027 | 1005.24 ± 0.11 | –
3 | C1COCCO1 [1,4-dioxane] + NCCN | – | – | – | – | – | – | – | 1343.4 ± 1.4 | 1027.79 ± 0.11 | 1.009 ± 0.031 | 1016.78 ± 0.11 | 0.8896 ± 0.027 | 1005.24 ± 0.11 | 1.178 ± 0.036
4 | C1COCCO1 [1,4-dioxane] + NCCO | – | – | – | – | – | – | 1.178 ± 0.036 | 1343.4 ± 1.4 | 1027.79 ± 0.11 | 1.009 ± 0.031 | 1016.78 ± 0.11 | 0.8896 ± 0.027 | 1005.24 ± 0.11 | –

Further lines, results first:

Row | viscosity ([1]; 298.15 K) [mPa·s] | mass density ([1]; 298.15 K) [kg/m3] | viscosity ([1]; 308.15 K) [mPa·s] | mass density ([1]; 308.15 K) [kg/m3] | viscosity ([1]; 318.15 K) [mPa·s] | mass density ([1]; 318.15 K) [kg/m3] | viscosity ([2]; 298.15 K) [mPa·s] | speed of sound ([2]; 298.15 K) [m/s] | mass density ([2]; 298.15 K) [kg/m3] | viscosity ([2]; 308.15 K) [mPa·s] | mass density ([2]; 308.15 K) [kg/m3] | viscosity ([2]; 318.15 K) [mPa·s] | mass density ([2]; 318.15 K) [kg/m3] | viscosity ([2]; 298.18 K) [mPa·s] | Structure (SMILES)
5 | 0.7804 ± 0.024 | 1246.37 ± 0.17 | 0.6744 ± 0.021 | 1231.21 ± 0.16 | 0.5719 ± 0.017 | 1214.55 ± 0.16 | – | – | – | – | – | – | – | – | ClCCCl [1,2-dichloroethane]
6 | 18.95 ± 0.58 | 1011.79 ± 0.24 | 11.96 ± 0.37 | 1004.68 ± 0.23 | 7.913 ± 0.24 | 998.15 ± 0.23 | – | – | – | – | – | – | – | – | NCCO [2-aminoethan-1-ol]
7 | 1.276 ± 0.039 | 894.79 ± 0.23 | 1.107 ± 0.034 | 885.63 ± 0.24 | 0.9445 ± 0.029 | 867.62 ± 0.24 | – | – | – | – | – | – | – | – | NCCN [ethane-1,2-diamine]
